Data: patent publication EP4714948A1, “COMPOUND USED FOR EGFR PROTEIN DEGRADATION, AND USE THEREOF” (TYK Medicines, Inc., priority 2023, dated 2024)

How the values were obtained:
PC-9 = experiment: Cell antiproliferative assay (CTG, 72 h); format: cell-based; conditions: Homo sapiens, PC-9 (EGFR exon 19 deletion)
Method: (§1) H1975 has EGFR T790M/L858R dual mutation, PC-9 has EGFR exon 19 deletion mutation, and HCC827 has exon 19 deletion mutation. CellCounting Lite 2.0, Trypsin EDTA, 37 °C CO2 incubator, cell counter, EnVision Serial No.1050454.
(§2) • (A) Trypsin EDTA was used to digest log-phase cells, medium was added to terminate the digestion reaction, and a cell suspension was prepared by blowing and mixing with a pipette. • (B) Cell concentration was determined using Vi-cell, and a suspension of 15,000-25,000 cells per milliliter was made depending on the purpose of the experiment and the characteristics of the cells. • (C) After the cell suspension was ready, it was gently mixed and each well was added with 100µL so that the cell density to be tested was 1,500- 2,500 per well.
(§3) • A) About 2 mg of compound was weighed, and the volume of DMSO required was calculated according to the formula: compound mass (mg)*compound purity (%)/compound molecular weight*1000. • (B) The inoculated cell culture plates were incubated in an incubator. About 24 hours later, compounds were added at gradient concentrations. • (C) 10mM of compound reservoir solution was diluted to […] with medium, and […] of the compound solution was added sequentially to the second column of the deep-well plate, and […] of medium containing 0.5% DMSO was added to the third to eleventh columns. • D) Gradient dilution: 125 µl of solution was pipetted from the second column and added to the third column, after mixing; another 125 µl of solution was pipetted from the third column and added to the fourth column, and the operation was repeated until the tenth column. • (E) 25 µl of compound was pipetted from the deep-well plate into a 96-well culture plate using a multichannel pipette, and each compound was run in triplicate on the 96-well plate. A 1:4 concentration gradient was established on the 96-well plate, with a final highest concentration of 10,000 nM.
(§4) • (A) 96-well plates were incubated in an incubator for 72 h. The effect of the compounds was observed under an inverted microscope. • (B) 25 µl of CTG solution was added to each well. The plate was incubated on a shaker for 10 minutes and the OD value of each well was read.
(§5) The survival rate ( % Cell Viability) was calculated using the following formula: %Cell Viability = 100% × (Lum_Sample−Lum_LC)/(Lum_HC−Lum_LC) [formula] • Lum_HC: Cell reading of 0.1% DMSO control group • Lum_Sample: Cell readings of compound addition group • Lum_LC: Reading of blank medium • IC50 values were obtained by curve fitting using GraphPad Prism 8 software.

H1975 = experiment: Cell antiproliferative assay (CTG, 72 h); format: cell-based; conditions: Homo sapiens, NCI-H1975, H1975 (EGFR T790M/L858R)
Method: as §1, §2, §3, §4, §5

HCC827 = experiment: Cell antiproliferative assay (CTG, 72 h); format: cell-based; conditions: Homo sapiens, HCC827 (exon 19 deletion)
Method: as §1, §2, §3, §4, §5

[1] = molecular target: EGFR in BAF3-LTC (Baf3-L858R-T780M-C797S) (Homo sapiens, UniProt P00533, C797S/L858R/T790M); experiment: EGFR PROTAC HTRF experiment (total EGFR degradation); format: cell-based; conditions: BAF3-LTC cells, 16 hours incubation
Sequence of EGFR in BAF3-LTC (Baf3-L858R-T780M-C797S) (P00533 25-1210 T790M/C797S/L858R): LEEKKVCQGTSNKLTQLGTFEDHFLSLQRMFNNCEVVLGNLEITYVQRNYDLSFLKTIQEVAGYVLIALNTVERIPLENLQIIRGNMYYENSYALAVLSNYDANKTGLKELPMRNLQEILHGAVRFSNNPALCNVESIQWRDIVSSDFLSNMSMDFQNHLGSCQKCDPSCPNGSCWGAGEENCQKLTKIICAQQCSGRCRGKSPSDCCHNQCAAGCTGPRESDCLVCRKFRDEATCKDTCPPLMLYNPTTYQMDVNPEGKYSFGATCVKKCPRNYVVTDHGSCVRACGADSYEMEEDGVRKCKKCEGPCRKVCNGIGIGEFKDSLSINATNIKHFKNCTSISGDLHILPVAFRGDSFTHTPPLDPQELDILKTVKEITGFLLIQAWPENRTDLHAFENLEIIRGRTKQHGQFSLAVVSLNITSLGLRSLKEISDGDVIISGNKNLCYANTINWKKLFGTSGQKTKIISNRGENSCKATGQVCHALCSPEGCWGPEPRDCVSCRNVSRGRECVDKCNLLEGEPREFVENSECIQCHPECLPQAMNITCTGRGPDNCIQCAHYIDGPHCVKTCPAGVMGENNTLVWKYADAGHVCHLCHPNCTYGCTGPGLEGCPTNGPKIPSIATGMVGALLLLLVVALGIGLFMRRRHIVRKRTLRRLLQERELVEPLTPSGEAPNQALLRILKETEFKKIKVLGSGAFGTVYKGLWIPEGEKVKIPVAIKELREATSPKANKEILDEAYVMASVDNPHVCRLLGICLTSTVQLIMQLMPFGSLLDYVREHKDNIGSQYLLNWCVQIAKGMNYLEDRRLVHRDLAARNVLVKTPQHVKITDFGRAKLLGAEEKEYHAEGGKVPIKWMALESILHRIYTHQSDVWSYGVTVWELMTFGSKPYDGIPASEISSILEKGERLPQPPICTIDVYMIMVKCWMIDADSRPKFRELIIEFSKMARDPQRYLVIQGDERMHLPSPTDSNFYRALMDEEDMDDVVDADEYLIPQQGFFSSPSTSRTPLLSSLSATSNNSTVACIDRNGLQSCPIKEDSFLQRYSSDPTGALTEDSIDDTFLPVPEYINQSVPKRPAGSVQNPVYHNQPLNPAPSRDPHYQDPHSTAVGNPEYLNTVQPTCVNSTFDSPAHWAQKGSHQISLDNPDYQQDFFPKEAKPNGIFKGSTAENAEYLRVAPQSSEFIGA

[2] = molecular target: EGFR in BAF3-DTC (Baf3-19del-T780M-C797S) (Homo sapiens, UniProt P00533, C797S/DEL746-750/T790M); experiment: as above; format: cell-based; conditions: BAF3-DTC cells, 16 hours incubation
Sequence of EGFR in BAF3-DTC (Baf3-19del-T780M-C797S) (P00533 with tags, fused parts or gaps DEL746-750/T790M/C797S): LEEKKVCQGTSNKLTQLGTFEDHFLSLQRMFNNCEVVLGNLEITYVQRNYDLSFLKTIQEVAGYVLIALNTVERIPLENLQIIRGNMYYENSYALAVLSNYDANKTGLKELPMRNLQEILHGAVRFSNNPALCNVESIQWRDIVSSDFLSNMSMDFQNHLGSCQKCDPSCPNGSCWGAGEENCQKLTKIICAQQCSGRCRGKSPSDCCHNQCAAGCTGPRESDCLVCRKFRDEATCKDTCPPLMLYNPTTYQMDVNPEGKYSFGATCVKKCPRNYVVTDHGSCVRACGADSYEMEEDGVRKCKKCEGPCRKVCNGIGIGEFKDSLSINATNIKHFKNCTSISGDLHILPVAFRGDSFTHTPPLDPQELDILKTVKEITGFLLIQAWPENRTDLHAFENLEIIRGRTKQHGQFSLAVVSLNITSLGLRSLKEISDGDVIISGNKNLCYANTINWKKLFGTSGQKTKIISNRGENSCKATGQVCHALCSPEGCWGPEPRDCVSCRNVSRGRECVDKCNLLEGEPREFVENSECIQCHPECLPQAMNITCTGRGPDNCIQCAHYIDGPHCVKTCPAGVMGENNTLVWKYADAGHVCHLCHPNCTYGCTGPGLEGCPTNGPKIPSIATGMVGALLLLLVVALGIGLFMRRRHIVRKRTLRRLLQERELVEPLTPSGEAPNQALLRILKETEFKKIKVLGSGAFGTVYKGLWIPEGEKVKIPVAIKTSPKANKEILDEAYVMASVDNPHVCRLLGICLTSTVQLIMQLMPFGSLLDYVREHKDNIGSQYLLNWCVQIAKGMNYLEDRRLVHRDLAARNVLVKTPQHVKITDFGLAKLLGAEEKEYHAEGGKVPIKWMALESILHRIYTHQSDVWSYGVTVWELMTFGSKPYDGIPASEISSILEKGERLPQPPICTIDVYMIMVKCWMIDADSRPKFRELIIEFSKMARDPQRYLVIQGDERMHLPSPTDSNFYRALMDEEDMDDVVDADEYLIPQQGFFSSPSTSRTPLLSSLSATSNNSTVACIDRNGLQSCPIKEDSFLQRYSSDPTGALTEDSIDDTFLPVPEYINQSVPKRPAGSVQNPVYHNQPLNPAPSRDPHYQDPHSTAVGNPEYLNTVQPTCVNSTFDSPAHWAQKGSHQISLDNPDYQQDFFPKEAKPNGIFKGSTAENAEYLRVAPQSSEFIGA

[3] = Pharmacokinetic test on male SD rats; format: in vivo; conditions: gavage (p.o.), 10 mg/kg, plasma; for AUC(0-inf) / AUC(0-t) / Cmax / MRT last / Tmax: rat, po
Method: Healthy adult SD rats, male, a total of 3, 6-8 weeks old; Weighing 200-300 grams.
EDTA-Na2 anticoagulant: 11.2 g of EDTA-Na2 was weighted and placed into a reagent bottle. 100 mL of physiological saline was added and the mixture was shaken until completely dissolved. After preparation, the solution was aliquoted into 1.5 mL centrifuge tubes, each containing approximately 20 uL, for use in whole blood sample collection.
Approximately 10 mg of the test sample was accurately weighed. DMSO accounting for 10% of the total volume was added to dissolve the sample. Subsequently, 0.5% MC solvent accounting for 90% of the total volume was slowly added while stirring. The mixture was sonicated and vortexed evenly, and a visually homogeneous preparation solution was obtained, with a concentration of 1 mg/mL. This solution should be freshly prepared immediately before use.
0.2 mL of the sample was pipetted into a 1.5 mL centrifuge tube and stored at -80°C for concentration analysis of the dosing solution.
Animals were kept in rat cages and fasted for no less than 10 hours on the day before the experiment, but were allowed to drink water. The animals were individually weighed and marked on their tails. Prior to dosing, blank blood samples were collected from each animal via the tail vein.
• Administration route: gavage (p.o.) • Dosage concentration: 1mg/ml • Dosage: 10 mg/kg • Dosage volume: 10 mL/kg
Operation process: The rat was grasped with a left hand protected by a bite-resistant glove and held in an upright position. The gavage needle was inserted through the mouth and advanced towards the pharynx. The needle was advanced gently, ensuring no significant resistance was felt. The drug was then injected into the stomach.
At 0.5 h, 1 h, 2 h, 4 h, 6 h, 8 h, 12 h, and 24 h post-dosing, 0.1-0.2 mL of whole blood was collected from each test animal into EDTA-Na2 anticoagulant tubes. The tubes were mixed by inverting 3-4 times. The samples were centrifuged at 2000 × g and 4 °C for 5 minutes. The upper plasma layer was to separated, promptly transferred to -80 °C for storage until analysis. The blood was collected via tail vein.
A quantitative detection method for the test compound was established using a Shimadzu liquid chromatography system and a Triple Quad™ 6500+ AB mass spectrometry (MS) system. This method was used to analyze the concentration of the parent drug in plasma. The variation of the analysis results was controlled using quality control (QC) samples, and the accuracy of the QC samples was required to be within the range of 80%-120%.
The main pharmacokinetic parameters were calculated using the non-compartmental model (NCA) with the WinNonlin Phoenix software. These parameters include: area under the concentration-time curve (AUC(0-t) and AUC(0-∞)), elimination half-life (T1/2), maximum plasma concentration (Cmax), and time to reach maximum plasma concentration (Tmax), etc.

Row | Structure (SMILES) | IC50 (PC-9) [nM] | IC50 (H1975) [nM] | IC50 (HCC827) [nM] | DC50 [1] [nM] | Dmax [1] [%] | DC50 [2] [nM] | Dmax [2] [%] | HL_ [3] [h] | AUC(0-inf) [3] [ng·h/mL] | AUC(0-t) [3] [ng·h/mL] | Cmax [3] [ng/mL] | MRT last [3] [h] | Tmax [3] [h]
1 | COc1cc(N2CCN(C(=O)CN3CCC(c4ccc(NC5CCC(=O)NC5=O)cc4)CC3)CC2)ccc1Nc1ncc(Cl)c(Nc2ccccc2-n2ccnn2)n1 (centres unmarked) [Compound T-007] | 100 to 1000 | 10 to 100 | 100 to 1000 | 100 to 1000 | 70 to 100 | – | – | – | – | – | – | – | –
2 | COc1cc(N2CCN(C(=O)CN3CCC(c4ccc(NC5CCC(=O)NC5=O)cc4)CC3)CC2)ccc1Nc1ncc(Cl)c(Nc2ccccc2-c2ncc[nH]2)n1 (centres unmarked) [Compound T-011] | 100 to 1000 | 10 to 100 | 100 to 1000 | 100 to 1000 | 50 to 70 | – | – | – | – | – | – | – | –
3 | CCc1cc(Nc2ncc(Cl)c(Nc3ccccc3C(=O)NC)n2)c(OC)cc1N1CCN(C(=O)CN2CCC(c3ccc4c(N5CCC(=O)NC5=O)nn(C)c4c3)C(F)(F)C2)CC1 (centres unmarked) [Compound T-013] | – | – | – | ≤ 10 | 70 to 100 | 10 to 100 | 70 to 100 | 3.09 | 6730 | 6690 | 899 | 6.27 | 4
4 | CCc1cc(Nc2ncc(Br)c(Nc3ccccc3C(=O)NC)n2)c(OC)cc1N1CCN(C(=O)CN2CCC(c3ccc4c(N5CCC(=O)NC5=O)nn(C)c4c3)C(F)(F)C2)CC1 (centres unmarked) [Compound T-014] | – | – | – | ≤ 10 | 70 to 100 | ≤ 10 | 70 to 100 | 3.37 | 4560 | 4510 | 721 | 5.88 | 3.33
5 | CCc1cc(Nc2ncc(Cl)c(Nc3ccccc3C(=O)NC)n2)c(OC)cc1N1CCN(C(=O)CN2CCC(c3ccc4c(N5CCC(=O)NC5=O)nn(C)c4c3)CC2)CC1 [Compound T-043] | 100 to 1000 | < 10 | 10 to 100 | – | – | – | – | – | – | – | – | – | –
6 | CCc1cc(Nc2ncc(Cl)c(Nc3ccccc3C(=O)NC)n2)c(OC)cc1N1CCN(C(=O)CN2CCN(c3ccc4c(N5CCC(=O)NC5=O)nn(C)c4c3)CC2)CC1 [Compound T-045] | 100 to 1000 | 100 to 1000 | 100 to 1000 | – | – | – | – | – | – | – | – | – | –
7 | CNC(=O)c1ccccc1Nc1nc(Nc2ccc(N3CCN(C(=O)CN4CCC(c5ccc6c(N7CCC(=O)NC7=O)nn(C)c6c5)C(F)(F)C4)CC3)cc2OC)ncc1Cl (centres unmarked) [Compound T-047] | 100 to 1000 | 10 to 100 | 100 to 1000 | – | – | – | – | – | – | – | – | – | –
8 | CNC(=O)c1ccccc1Nc1nc(Nc2cc(C)c(N3CCN(C(=O)CN4CCC(c5ccc6c(N7CCC(=O)NC7=O)nn(C)c6c5)C(F)(F)C4)CC3)cc2OC)ncc1Cl (centres unmarked) [Compound T-049] | 100 to 1000 | < 10 | 10 to 100 | – | – | – | – | – | – | – | – | – | –
9 | CCc1cc(Nc2ncc(Cl)c(Nc3ccccc3C(=O)NC)n2)c(OC)cc1N1CCN(C(=O)CN2CCC(c3c(F)cc(NC4CCC(=O)NC4=O)cc3F)CC2)CC1 (centres unmarked) [Compound T-068] | – | – | – | 10 to 100 | 70 to 100 | 10 to 100 | 70 to 100 | – | – | – | – | – | –
10 | CCc1cc(Nc2ncc(Cl)c(Nc3ccccc3C(=O)NC)n2)c(OC)cc1N1CCN(C(=O)CN2CCC(c3ccc(NC4CCC(=O)NC4=O)cc3C(F)(F)F)CC2)CC1 (centres unmarked) [Compound T-074] | – | – | – | – | – | – | – | 7.97 | 20200 | 16900 | 1120 | 9.66 | 5.33
11 | CCc1cc(Nc2ncc(Cl)c(Nc3ccccc3C(=O)NC)n2)c(OC)cc1N1CCN(C(=O)CN2CCC(c3ccc(NC4CCC(=O)NC4=O)cc3)CC2)[C@@H](C)C1 (some centres unmarked) [Compound T-078] | – | – | – | – | – | – | – | 5.45 | 10200 | 8600 | 714 | 9.06 | 6
12 | CCc1cc(Nc2ncc(Cl)c(Nc3ccccc3C(=O)NC)n2)c(OC)cc1N1CCN(C(=O)CN2CCC(c3ccc(NC4CCC(=O)NC4=O)cc3)CC2)[C@H](C)C1 (some centres unmarked) [Compound T-079] | 100 to 1000 | 10 to 100 | 100 to 1000 | – | – | – | – | 4.02 | 7990 | 7720 | 673 | 4.67 | 4.67
13 | CNC(=O)c1ccccc1Nc1nc(Nc2cc(C)c(N3CCN(C(=O)CC4(O)CCN(c5ccc6c(N7CCC(=O)NC7=O)nn(C)c6c5)CC4)CC3)cc2OC)ncc1Cl [Compound T-086] | 100 to 1000 | 100 to 1000 | 100 to 1000 | – | – | – | – | – | – | – | – | – | –
14 | CCc1cc(Nc2ncc(Cl)c(Nc3ccccc3C(=O)NC)n2)c(OC)cc1N1CCN(C(=O)CN2CCC(c3ccc(NC4CCC(=O)NC4=O)cc3C)CC2)CC1 (centres unmarked) [Compound T-090] | – | – | – | 10 to 100 | 70 to 100 | 100 to 1000 | 70 to 100 | – | – | – | – | – | –
15 | COc1cc(N2CCN(C(=O)CN3CCC(c4ccc(NC5CCC(=O)NC5=O)cc4)CC3)CC2)ccc1Nc1ncc(Cl)c(Nc2ccccc2C(C)=O)n1 (centres unmarked) [Control Compound 1, reference compound] | – | – | – | – | – | – | – | 3.47 | 2090 | 2060 | 227 | 7.32 | 5.33
